# Reference: ChEMBL document CHEMBL1201862, “PubChem BioAssay data set” (2004)
# Activity calls are given as the source filed them.
# How the values were obtained:
# Protein skinhead-1 = target: T1, Protein skinhead-1 (Caenorhabditis elegans, UniProt P34707); format: functional
# T1 sequence (P34707 whole entry): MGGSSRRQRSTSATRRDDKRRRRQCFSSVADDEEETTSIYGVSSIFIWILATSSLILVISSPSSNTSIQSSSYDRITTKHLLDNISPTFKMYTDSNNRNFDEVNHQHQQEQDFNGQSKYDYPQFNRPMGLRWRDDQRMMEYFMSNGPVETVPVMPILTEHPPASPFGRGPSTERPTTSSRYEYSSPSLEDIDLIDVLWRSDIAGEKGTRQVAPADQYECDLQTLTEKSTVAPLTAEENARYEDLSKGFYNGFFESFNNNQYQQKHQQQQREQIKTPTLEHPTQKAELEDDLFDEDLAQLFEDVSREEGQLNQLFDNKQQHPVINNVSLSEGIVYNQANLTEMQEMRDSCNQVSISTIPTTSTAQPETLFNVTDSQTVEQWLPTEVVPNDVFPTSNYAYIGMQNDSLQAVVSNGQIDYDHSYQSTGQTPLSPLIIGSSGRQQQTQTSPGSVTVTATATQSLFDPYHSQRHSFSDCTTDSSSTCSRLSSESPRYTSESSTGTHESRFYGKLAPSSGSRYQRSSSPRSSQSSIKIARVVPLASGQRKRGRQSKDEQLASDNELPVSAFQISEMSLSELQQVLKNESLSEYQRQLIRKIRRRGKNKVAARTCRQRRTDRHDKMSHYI
# [1] = target: T2, Calpain-2 catalytic subunit (Sus scrofa, UniProt P43367); test: m-calpain protease blockers, concentration series – biochemical, fluorogenic peptide substrate, dose response (AID 1420); format: functional
# T2 sequence (P43367 whole entry): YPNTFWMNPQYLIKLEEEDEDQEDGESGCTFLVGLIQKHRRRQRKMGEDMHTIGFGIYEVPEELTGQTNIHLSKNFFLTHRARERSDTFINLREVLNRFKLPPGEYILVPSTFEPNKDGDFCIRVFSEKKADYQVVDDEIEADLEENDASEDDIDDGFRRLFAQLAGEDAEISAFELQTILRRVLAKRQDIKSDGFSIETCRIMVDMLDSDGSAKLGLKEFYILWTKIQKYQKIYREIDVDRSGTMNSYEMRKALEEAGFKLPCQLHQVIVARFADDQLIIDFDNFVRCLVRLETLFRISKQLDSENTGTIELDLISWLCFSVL
# [2] = target: T3, Heat shock factor protein 1 (Mus musculus, UniProt P38532); test: enhancement of HSF1-driven luciferase signal – cell-based, NIH3T3, luminescence, dose retest, confirmation (AID 435004); format: functional;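 further: stress induced by proteasome inhibitor MG132 added 30 min after compound; luciferase reporter driven by HSF1 response element in NIH3T3 cells; actives raise luminescence as potentiators of the MG132 stress response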
# T3 sequence (P38532 whole entry): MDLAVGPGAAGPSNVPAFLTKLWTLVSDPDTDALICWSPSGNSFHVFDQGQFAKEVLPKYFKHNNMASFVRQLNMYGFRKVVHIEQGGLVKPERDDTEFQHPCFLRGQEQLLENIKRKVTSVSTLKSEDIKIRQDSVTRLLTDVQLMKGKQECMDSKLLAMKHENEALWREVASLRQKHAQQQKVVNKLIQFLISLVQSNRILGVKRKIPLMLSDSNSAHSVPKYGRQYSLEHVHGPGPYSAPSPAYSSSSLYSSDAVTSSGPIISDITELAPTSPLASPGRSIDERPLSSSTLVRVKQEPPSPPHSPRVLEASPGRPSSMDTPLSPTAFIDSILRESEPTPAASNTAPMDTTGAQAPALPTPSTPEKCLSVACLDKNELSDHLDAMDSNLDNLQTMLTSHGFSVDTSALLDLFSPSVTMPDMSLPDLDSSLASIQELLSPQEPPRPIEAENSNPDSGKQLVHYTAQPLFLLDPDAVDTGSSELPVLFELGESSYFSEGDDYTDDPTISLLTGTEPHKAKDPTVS
# [3] = Luminescence Cell-Based Dose Response HTS to Identify Activators of Luciferase Translation or Activity in H4 […] Cells. [Related pubchem assays: 1829 (Project Summary), 1814 (Primary HTS)]; format: functional
# [4] = target: T4, Corticotropin-releasing factor receptor 2/Corticotropin-releasing factor-binding protein (Homo sapiens, UniProt P24387+Q13324); test: activators of CRF receptor 2 with binding protein – uHTS hits, confirmation (AID 602473); format: functional; conditions: read-out: EC50_Mean
# T4 sequence (Q13324 whole entry): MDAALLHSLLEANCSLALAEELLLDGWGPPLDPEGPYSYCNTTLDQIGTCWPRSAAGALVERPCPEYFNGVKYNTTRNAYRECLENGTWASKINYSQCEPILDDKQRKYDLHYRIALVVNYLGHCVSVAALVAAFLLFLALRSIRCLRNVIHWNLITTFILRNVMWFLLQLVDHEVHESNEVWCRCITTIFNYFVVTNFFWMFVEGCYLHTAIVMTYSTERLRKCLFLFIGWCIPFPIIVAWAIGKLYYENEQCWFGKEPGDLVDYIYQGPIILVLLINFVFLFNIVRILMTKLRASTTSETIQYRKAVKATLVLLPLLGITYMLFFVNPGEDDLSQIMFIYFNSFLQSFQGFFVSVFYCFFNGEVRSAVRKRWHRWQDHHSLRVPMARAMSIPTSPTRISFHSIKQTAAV
# T4 sequence (P24387 whole entry): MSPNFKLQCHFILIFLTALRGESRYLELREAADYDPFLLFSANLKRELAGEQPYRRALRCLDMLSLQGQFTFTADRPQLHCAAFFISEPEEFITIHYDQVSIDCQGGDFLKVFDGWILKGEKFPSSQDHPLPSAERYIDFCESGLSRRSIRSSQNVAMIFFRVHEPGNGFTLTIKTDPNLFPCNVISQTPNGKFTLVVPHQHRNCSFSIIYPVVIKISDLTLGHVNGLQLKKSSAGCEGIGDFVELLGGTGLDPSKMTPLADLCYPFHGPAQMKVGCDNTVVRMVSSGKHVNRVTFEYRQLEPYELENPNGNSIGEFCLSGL
# [5] = target: T4, Corticotropin-releasing factor receptor 2/Corticotropin-releasing factor-binding protein; test: Dose Response confirmation of uHTS hits for small molecule antagonists of the CRF-binding protein and CRF-R2 receptor complex.; format: functional; conditions: read-out: IC50_Mean
# Fatty acid synthase [6] = target: T5, Fatty acid synthase (Homo sapiens, UniProt P49327); test: inhibition of human FAS-TE enzyme activity – biochemical, endpoint fluorescence intensity, uHTS hits, dose response (AID 624327); format: functional;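 further: fluorescence from hydrolysis of an O-methyl fluorescein acyl ester substrate by the enzyme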
# Fatty acid synthase [7] = target: T5, Fatty acid synthase; test: inhibition of human FAS-TE enzyme activity – biochemical, kinetic fluorescence intensity, dose response (AID 624326); format: functional;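 further: rate of fluorescence rise from hydrolysis of a fluorogenic O-methyl fluorescein ester substrate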
# [8] = target: T6, Rac GTPase-activating protein 1 (Homo sapiens, UniProt Q9H0H5); test: blockers of MgcRacGAP-driven Rac1 GTP hydrolysis – biochemical, ADP Hunter fluorescence, primary and confirmatory, confirmation (AID 624330); format: functional
# T6 sequence (Q9H0H5 whole entry): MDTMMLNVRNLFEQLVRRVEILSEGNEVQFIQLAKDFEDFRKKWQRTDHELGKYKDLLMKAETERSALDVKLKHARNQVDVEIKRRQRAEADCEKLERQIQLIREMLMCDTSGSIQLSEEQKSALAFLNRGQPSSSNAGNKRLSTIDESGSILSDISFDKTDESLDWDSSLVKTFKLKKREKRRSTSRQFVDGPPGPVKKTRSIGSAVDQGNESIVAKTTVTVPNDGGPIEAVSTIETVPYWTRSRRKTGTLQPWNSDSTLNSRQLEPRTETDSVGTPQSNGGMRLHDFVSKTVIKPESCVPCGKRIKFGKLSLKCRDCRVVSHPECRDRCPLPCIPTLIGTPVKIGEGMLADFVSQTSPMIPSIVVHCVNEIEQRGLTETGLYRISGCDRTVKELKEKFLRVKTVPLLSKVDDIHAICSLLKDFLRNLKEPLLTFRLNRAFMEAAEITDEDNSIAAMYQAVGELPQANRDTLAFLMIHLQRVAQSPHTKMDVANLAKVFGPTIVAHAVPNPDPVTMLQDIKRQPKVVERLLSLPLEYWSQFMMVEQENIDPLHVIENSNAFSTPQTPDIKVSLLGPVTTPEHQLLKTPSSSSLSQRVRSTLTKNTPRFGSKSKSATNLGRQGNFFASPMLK
# Large T antigen = Large T antigen (Simian virus 40, UniProt P03070); format: functional, Betapolyomavirus macacae;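 further: Confirmatory-stage PubChem screen for compounds that inhibit SV40 T antigen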
# [9] = Luminescence Cell-Based Dose Retest to Confirm Inhibitors of Cancer Stem Cells. [Related pubchem assays (depositor defined):AID2717, AID2721]; format: functional; conditions: Homo sapiens
# 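Wherever AC50 is given: cells exposed to compound for roughly 70 hours or longer before luminescence read.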
# T5 sequence (P49327 whole entry): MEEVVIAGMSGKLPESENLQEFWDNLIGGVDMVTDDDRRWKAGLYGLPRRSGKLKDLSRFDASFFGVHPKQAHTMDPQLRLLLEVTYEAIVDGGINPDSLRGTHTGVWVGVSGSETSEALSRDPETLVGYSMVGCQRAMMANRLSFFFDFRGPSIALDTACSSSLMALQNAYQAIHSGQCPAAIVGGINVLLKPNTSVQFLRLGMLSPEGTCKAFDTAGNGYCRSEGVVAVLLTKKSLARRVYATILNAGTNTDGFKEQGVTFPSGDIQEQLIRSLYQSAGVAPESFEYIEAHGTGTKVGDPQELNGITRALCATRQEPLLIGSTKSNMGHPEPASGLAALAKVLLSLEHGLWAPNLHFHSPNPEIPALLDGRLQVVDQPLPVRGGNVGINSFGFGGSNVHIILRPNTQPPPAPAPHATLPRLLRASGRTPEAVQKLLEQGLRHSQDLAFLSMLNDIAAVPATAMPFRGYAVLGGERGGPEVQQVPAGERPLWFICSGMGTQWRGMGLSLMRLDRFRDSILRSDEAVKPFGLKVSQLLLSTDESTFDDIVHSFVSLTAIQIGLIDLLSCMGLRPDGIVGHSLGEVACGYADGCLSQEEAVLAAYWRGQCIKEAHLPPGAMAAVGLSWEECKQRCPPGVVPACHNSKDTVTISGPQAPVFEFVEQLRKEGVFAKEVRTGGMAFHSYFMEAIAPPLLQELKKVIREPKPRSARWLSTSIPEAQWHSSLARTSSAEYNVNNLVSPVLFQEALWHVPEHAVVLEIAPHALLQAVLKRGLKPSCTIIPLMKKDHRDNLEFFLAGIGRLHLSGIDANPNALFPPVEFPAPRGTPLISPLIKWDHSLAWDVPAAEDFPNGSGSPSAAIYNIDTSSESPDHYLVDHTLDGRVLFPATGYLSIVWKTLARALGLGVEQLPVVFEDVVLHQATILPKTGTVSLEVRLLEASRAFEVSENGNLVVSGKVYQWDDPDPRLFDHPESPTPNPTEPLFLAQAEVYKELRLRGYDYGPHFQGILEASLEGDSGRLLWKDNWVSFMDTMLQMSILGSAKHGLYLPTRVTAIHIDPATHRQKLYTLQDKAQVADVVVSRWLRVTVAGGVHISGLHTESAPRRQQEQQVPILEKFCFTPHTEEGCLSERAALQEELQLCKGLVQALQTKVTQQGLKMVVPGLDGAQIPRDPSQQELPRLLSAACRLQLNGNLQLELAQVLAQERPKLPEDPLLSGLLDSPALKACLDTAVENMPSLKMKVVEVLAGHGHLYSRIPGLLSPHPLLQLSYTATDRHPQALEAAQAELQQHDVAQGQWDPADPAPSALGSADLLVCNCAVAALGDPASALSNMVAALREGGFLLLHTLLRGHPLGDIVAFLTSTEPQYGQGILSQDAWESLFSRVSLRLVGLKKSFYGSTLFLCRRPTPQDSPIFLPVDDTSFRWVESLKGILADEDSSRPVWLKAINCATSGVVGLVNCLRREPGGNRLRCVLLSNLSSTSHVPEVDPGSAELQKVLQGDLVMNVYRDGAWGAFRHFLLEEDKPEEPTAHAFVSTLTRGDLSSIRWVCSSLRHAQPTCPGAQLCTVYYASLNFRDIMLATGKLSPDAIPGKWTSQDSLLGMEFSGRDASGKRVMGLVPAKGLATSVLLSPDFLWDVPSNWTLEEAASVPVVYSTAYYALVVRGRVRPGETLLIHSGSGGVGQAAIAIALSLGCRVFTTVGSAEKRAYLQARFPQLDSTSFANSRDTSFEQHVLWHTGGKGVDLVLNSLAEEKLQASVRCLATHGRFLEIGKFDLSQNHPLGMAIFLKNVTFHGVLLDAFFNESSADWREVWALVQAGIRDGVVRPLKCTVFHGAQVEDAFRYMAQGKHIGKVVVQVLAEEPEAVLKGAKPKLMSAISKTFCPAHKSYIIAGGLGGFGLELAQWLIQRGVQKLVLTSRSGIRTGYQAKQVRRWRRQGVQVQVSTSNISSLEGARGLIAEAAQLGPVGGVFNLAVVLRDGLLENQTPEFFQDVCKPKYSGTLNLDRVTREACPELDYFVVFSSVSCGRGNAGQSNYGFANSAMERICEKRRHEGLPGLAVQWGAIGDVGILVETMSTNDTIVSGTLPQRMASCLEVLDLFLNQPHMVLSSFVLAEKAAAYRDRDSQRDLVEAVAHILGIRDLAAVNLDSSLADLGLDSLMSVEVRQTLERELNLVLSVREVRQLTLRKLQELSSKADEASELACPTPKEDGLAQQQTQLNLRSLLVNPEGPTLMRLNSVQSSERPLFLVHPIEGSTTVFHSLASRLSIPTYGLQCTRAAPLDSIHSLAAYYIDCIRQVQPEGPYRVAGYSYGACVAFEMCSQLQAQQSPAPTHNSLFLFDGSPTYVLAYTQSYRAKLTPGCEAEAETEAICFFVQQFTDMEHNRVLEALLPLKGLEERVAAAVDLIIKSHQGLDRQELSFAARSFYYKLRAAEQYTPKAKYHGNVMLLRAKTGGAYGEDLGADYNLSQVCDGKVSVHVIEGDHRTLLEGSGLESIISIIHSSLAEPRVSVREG
# Large T antigen, sequence (P03070 whole entry): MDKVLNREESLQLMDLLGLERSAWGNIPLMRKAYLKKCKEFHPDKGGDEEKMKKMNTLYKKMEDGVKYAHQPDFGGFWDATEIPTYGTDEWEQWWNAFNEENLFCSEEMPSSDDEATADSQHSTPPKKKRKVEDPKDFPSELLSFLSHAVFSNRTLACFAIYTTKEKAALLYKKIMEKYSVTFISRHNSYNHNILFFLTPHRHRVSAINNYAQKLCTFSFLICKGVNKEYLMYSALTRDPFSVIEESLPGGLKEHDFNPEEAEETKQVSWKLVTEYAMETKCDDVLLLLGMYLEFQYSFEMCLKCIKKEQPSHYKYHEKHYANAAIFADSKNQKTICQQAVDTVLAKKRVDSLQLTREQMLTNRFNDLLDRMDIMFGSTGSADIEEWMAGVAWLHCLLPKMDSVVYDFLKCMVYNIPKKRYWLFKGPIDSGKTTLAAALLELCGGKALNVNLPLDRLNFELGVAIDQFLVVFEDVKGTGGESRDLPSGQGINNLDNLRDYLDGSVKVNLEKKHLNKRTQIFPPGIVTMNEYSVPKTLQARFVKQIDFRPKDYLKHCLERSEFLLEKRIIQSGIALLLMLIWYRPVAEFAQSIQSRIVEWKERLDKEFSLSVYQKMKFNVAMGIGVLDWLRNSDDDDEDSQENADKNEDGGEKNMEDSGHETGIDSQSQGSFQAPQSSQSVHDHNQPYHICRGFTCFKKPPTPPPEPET
compound,measurement,setting,value
CC(=O)Nc1cccc(OCC(=O)NS(=O)(=O)c2ccc(Cl)cc2)c1,IC50,Protein skinhead-1,> 100 µM (inactive)
C=CCN1C(=O)C2(C(C(=O)OCC)=C(N)Oc3ccccc32)C2=C1CCCC2=O (centres undefined),IC50,Protein skinhead-1,> 100 µM (inactive)
O=C(CCC1CCCCC1)Nc1ccc(C(=O)c2ccncc2)cc1,IC50,[1],7.01 µM (not active)
COC(=O)[C@H](CCSC)NC(=O)Nc1cccc(C)c1C,EC50,[2],> 260 µM (inactive)
O=C(COC(=O)c1cccnc1O)NCCc1ccc(Cl)cc1Cl,EC50,[3],0.367 µM (active)
COc1ccc(-c2[nH]ncc2CN2CCN(C3CCCCC3)C(=O)C2)cc1F,EC50,[2],216 µM (active)
COc1ccc(CN(C)Cc2nc3scc(-c4ccccc4)c3c(=O)[nH]2)cc1OC,EC50,[4],> 53 µM (inactive)
same,IC50,[5],> 47.1 µM (inactive)
Cc1ccc(CSc2nnc(-c3ccco3)o2)cc1,IC50,Protein skinhead-1,22 µM (active)
COCCNC(=S)N1CCc2cc(OC)c(OC)cc2C1COc1ccc(C(C)C)cc1 (centres undefined),EC50,[4],> 53 µM (inactive)
same,IC50,[5],> 47.1 µM (inactive)
COc1ccc2cc3cc(C(=O)N4CCCC(C)C4)oc3nc2c1 (centres undefined),IC50,Fatty acid synthase [6],6.22 µM (active)
same,IC50,Fatty acid synthase [7],5.48 µM (active)
O=C(Cn1cc([N+](=O)[O-])ccc1=O)NCc1ccc(Cl)cc1Cl,IC50,Fatty acid synthase [6],15.8 µM (active)
same,IC50,Fatty acid synthase [7],20.4 µM (inactive)
Fc1ccc(Cn2nnnc2C(c2cccs2)N2CCCCCC2)cc1 (centres undefined),IC50,[1],7.88 µM (not active)
NC1=NC(=O)S/C1=C\c1ccc(O)cc1,EC50,[4],> 53 µM (inactive)
same,IC50,[8],15.7 µM (active)
same,IC50,Large T antigen,4.59 µM (active)
same,IC50,[5],> 47.1 µM (inactive)
[O-][S+](Cc1cc(Sc2ccccc2)nc(-c2ccccc2)n1)c1ccccc1 (centres undefined),EC50,[2],> 260 µM (inactive)
COc1ccc(OC)c(NC(=O)COC(=O)CSc2ccc(Cl)cc2)c1,IC50,[1],15.5 µM (not active)
O=C(Nc1ccc(Nc2ccccc2)cc1)c1cc([N+](=O)[O-])ccc1Cl,EC50,[2],5.63 µM (active)
same,IC50,Fatty acid synthase [6],11.1 µM (active)
same,AC50,[9],9.07 µM (active)
same,IC50,Fatty acid synthase [7],14 µM (active)
O=C(c1ccc(F)cc1Cl)N(Cc1ccco1)C1CCS(=O)(=O)C1 (centres undefined),EC50,[4],> 53 µM (inactive)
same,IC50,[5],> 47.1 µM (inactive)
O=C(c1cc2cc([N+](=O)[O-])ccc2s1)N1CCCCC1,IC50,[1],43.1 µM (not active)
O=C(Oc1ccc(Cl)c2cccnc12)C12CC3CC(CC(C3)C1)C2,IC50,[1],11.9 µM (not active)
O=C(NC(=S)NCC1CCCO1)C(c1ccccc1)c1ccccc1 (centres undefined),EC50,[4],> 53 µM (inactive)
same,IC50,[5],> 47.1 µM (inactive)
O=C(O)C1CC(=O)N(CCOc2ccccc2)C1 (centres undefined),EC50,[4],> 53 µM (inactive)
same,IC50,[5],> 47.1 µM (inactive)
O=C(CSc1ccccn1)C12CC3CC(CC(C3)C1)C2,IC50,[1],> 50 µM (not active)
CCc1ccc(OCc2nnc(S)n2Cc2ccccc2)cc1,IC50,[1],4.01 µM (not active)
O=c1c2ccccc2ccc2ccccc12,IC50,Protein skinhead-1,21.3 µM (active)
O=C(NCCc1ccccc1)c1ccc(Cl)nc1,EC50,[3],0.155 µM (inconclusive)
O=C(CCNC(=O)c1ccc([N+](=O)[O-])cc1)NC1CCCCCC1,IC50,Fatty acid synthase [6],8.77 µM (active)
same,IC50,Fatty acid synthase [7],7.06 µM (active)
Cn1nc(C(=O)OCC(=O)N2CCc3ccccc32)c2ccccc2c1=O,IC50,[1],> 50 µM (not active)
CCN(CC)c1cc2nonc2c2nonc12,IC50,Fatty acid synthase [6],15.9 µM (active)
same,IC50,Fatty acid synthase [7],19.4 µM (active)
O=C(CN1C(=O)/C(=C/c2cccc(Br)c2)SC1=S)NC1=NCCS1,IC50,[1],> 50 µM (not active)
C[C@@H](NC(=O)c1[nH]cnc1C(=O)N[C@@H](CCCCNC(=O)OC(C)(C)C)C(=O)OC(C)(C)C)c1ccccc1,IC50,[1],8.84 µM (not active)
O=C(CSc1nnc(COc2ccc(Cl)cc2)o1)NC1CC2CCC1C2 (centres undefined),IC50,Protein skinhead-1,> 100 µM (inactive)
COc1ccc2cc(N3CCCC3=O)ccc2c1,IC50,Protein skinhead-1,> 100 µM (inactive)
C=C1CCC[C@]2(C)C[C@H]3OC(=O)C(CNCCN(C)C)[C@H]3CC12 (some centres undefined),IC50,Protein skinhead-1,> 100 µM (inactive)
O=c1cc(-c2ccccc2)ss1,EC50,[4],> 53 µM (inactive)
same,IC50,[5],> 47.1 µM (inactive)
COc1ccc([N+](=O)[O-])cc1/C=N/NC(=O)/C(=C\c1cccs1)NC(=O)c1ccccc1,IC50,Fatty acid synthase [6],2.62 µM (active)
same,IC50,Fatty acid synthase [7],1.97 µM (active)
O=C(CCN1CCCCCC1)Nc1ccccc1F,IC50,Protein skinhead-1,> 100 µM (inactive)
Cc1cc(N2CCOCC2)nc2ccc(NC(=O)C3CCC(C)CC3)cc12 (centres undefined),IC50,Protein skinhead-1,> 100 µM (inactive)
CNC(=S)N/N=C/C1=CCC2CC1C2(C)C (centres undefined),IC50,[1],> 50 µM (not active)
CCN(CC)C(=O)C1CCCN(c2ccc([N+](=O)[O-])cc2/C=N/NC(=O)c2ccccc2)C1 (centres undefined),IC50,Fatty acid synthase [6],0.645 µM (active)
same,IC50,Fatty acid synthase [7],0.846 µM (active)
C/C(=N\Nc1ccccn1)c1ccc(S(=O)(=O)NCc2ccco2)cc1,IC50,Fatty acid synthase [6],13.7 µM (active)
same,IC50,Fatty acid synthase [7],10.3 µM (active)
